Test results published in US10265307B2, “Thiazolecarboxamides and pyridinecarboxamide compounds useful as Pim kinase inhibitors” (Incyte Corporation, priority 2013, dated 2019).

Assays:
Type in all cases: biochemical
Pim-1 = Pim-1 (Homo sapiens (Human), UniProt P11309); assay: Pim-1 kinase assay; settings: 1 mM ATP; read-out: Pim1 IC50
Description: Supplementation of the STOP buffer with beads and stopping the reactions were done under reduced light. Prior to the stopping reactions STOP buffer with beads was pre-incubated for 1 h in the dark at room temperature. After stopping the reactions, plates were incubated for 1 h in the dark at room temperature before reading on a PHERAstar FS plate reader (BMG Labtech) under reduced light.

Pim-2 = Pim-2 (Homo sapiens (Human), UniProt Q9P1W9); assay: Pim-2 kinase assay; settings: 1 mM ATP; read-out: Pim2 IC50
Pim-2, sequence (Q9P1W9 whole entry): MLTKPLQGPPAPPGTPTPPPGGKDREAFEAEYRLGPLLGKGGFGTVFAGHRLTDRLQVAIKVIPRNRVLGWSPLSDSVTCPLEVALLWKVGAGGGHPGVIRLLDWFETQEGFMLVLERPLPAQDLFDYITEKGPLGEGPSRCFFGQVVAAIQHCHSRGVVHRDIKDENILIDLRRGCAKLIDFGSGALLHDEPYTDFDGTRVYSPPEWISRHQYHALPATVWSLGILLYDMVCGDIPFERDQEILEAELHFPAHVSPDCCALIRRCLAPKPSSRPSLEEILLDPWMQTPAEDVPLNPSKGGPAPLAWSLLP

Pim-3 = Pim-3 (Homo sapiens (Human), UniProt Q86V86); assay: Pim-3 kinase assay; settings: 1 mM ATP; read-out: Pim3 IC50
How it was run: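 AlphaScreen-type assay: […] Pim-3 phosphorylates 0.05 μM biotin-BAD peptide with 1 mM ATP, 1 h at 25 °C, pH 7.5 Tris buffer with MgCl2 and DTT. EDTA stop with phospho-BAD (Ser112) antibody and donor/acceptor beads, 1 h dark incubation before reading.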

Pim-1, sequence (P11309 whole entry): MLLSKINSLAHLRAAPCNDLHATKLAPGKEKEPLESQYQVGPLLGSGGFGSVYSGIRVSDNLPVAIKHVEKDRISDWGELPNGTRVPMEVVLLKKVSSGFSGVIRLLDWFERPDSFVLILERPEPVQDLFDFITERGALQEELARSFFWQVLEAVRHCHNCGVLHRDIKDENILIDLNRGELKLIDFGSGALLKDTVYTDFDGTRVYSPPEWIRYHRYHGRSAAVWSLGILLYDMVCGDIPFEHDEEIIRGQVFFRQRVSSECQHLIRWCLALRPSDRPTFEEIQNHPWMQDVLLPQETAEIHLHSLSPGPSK

Structure (SMILES)	IC50 (Pim-1)	IC50 (Pim-2)	IC50 (Pim-3)
Nc1sc(-c2c(F)cccc2F)nc1C(=O)Nc1cnc2c(c1N1CCC[C@H](N)C1)CCC2 [Example 14, 5-Amino-N-{4-[(3S)-3-aminopiperidin-1-yl]-6,7-dihydro-5H-cyclopenta[b]pyridin-3-yl}-2-(2,6-difluorophenyl)-1,3-thiazole-4-carboxamide]	≤ 100 nM	≤ 100 nM	≤ 100 nM
COC1CCc2c1ncc(NC(=O)c1nc(-c3c(F)cccc3F)sc1N)c2N1CCC[C@H](N)C1 (stereo partly drawn) [Example 17, 5-Amino-N-{4-[(3S)-3-aminopiperidin-1-yl]-7-methoxy-6,7-dihydro-5H-cyclopenta[b]pyridin-3-yl}-2-(2,6-difluorophenyl)-1,3-thiazole-4-carboxamide]	≤ 100 nM	100 to 1000 nM	≤ 100 nM
Nc1sc(-c2c(F)cccc2F)nc1C(=O)Nc1cnc2c(c1N1CCC[C@H](N)C1)CCC2=O [Example 20, 5-Amino-N-{4-[(3S)-3-aminopiperidin-1-yl]-7-oxo-6,7-dihydro-5H-cyclopenta[b]pyridin-3-yl}-2-(2,6-difluorophenyl)-1,3-thiazole-4-carboxamide]	≤ 100 nM	≤ 100 nM	≤ 100 nM
N[C@H]1CCCN(c2c(NC(=O)c3ccc(F)c(-c4c(F)cccc4F)n3)cnc3c2CCC3)C1 [Example 21, N-{4-[(3S)-3-Aminopiperidin-1-yl]-6,7-dihydro-5H-cyclopenta[b]pyridin-3-yl}-6-(2,6-difluorophenyl)-5-fluoropyridine-2-carboxamide]	≤ 100 nM	≤ 100 nM	≤ 100 nM
C[C@H]1CN(c2c(NC(=O)c3nc(-c4c(F)cccc4F)sc3N)cnc3c2CCC3)C[C@@H](N)[C@@H]1O [Example 28, 5-Amino-N-{4-[(3R,4R,5S)-3-amino-4-hydroxy-5-methylpiperidin-1-yl]-6,7-dihydro-5H-cyclopenta[b]pyridin-3-yl}-2-(2,6-difluorophenyl)-1,3-thiazole-4-carboxamide]	≤ 100 nM	≤ 100 nM	≤ 100 nM
Nc1sc(-c2c(F)cccc2F)nc1C(=O)Nc1cnc2c(c1N1CCC[C@H](N)C1)CCCN2 [Example 31, 5-Amino-N-{4-[(3S)-3-aminopiperidin-1-yl]-5,6,7,8-tetrahydro-1,8-naphthyridin-3-yl}-2-(2,6-difluorophenyl)-1,3-thiazole-4-carboxamide]	≤ 100 nM	≤ 100 nM	≤ 100 nM
Nc1cc(F)c(-c2c(F)cccc2F)nc1C(=O)Nc1cnc2c(c1N1CCC[C@H](N)C1)CCCN2 [Example 32, 3-Amino-N-{4-[(3S)-3-aminopiperidin-1-yl]-5,6,7,8-tetrahydro-1,8-naphthyridin-3-yl}-6-(2,6-difluorophenyl)-5-fluoropyridine-2-carboxamide]	≤ 100 nM	≤ 100 nM	≤ 100 nM
N[C@H]1CCCN(c2c(NC(=O)c3ccc(F)c(-c4c(F)cccc4F)n3)cnc3c2CCCN3)C1 [Example 33, N-{4-[(3S)-3-Aminopiperidin-1-yl]-5,6,7,8-tetrahydro-1,8-naphthyridin-3-yl}-6-(2,6-difluorophenyl)-5-fluoropyridine-2-carboxamide]	≤ 100 nM	100 to 1000 nM	≤ 100 nM
Nc1sc(-c2c(F)cccc2F)nc1C(=O)Nc1cnc2[nH]ncc2c1N1CCC[C@H](N)C1 [Example 34, 5-Amino-N-{4-[(3S)-3-aminopiperidin-1-yl]-1H-pyrazolo[3,4-b]pyridin-5-yl}-2-(2,6-difluorophenyl)-1,3-thiazole-4-carboxamide]	≤ 100 nM	> 2000 nM	≤ 100 nM
N[C@H]1CCCN(c2c(NC(=O)c3csc(-c4c(F)cccc4F)n3)cnc3[nH]ncc23)C1 [Example 35, N-{4-[(3S)-3-aminopiperidin-1-yl]-1H-pyrazolo[3,4-b]pyridin-5-yl}-2-(2,6-difluorophenyl)-1,3-thiazole-4-carboxamide]	> 40 nM	> 2000 nM	> 40 nM
C[C@@H]1C[C@H](N)CN(c2c(NC(=O)c3nc(-c4c(F)cccc4F)sc3N)cnc3c2CCO3)C1 [Example 36, 5-Amino-N-{4-[(3S,5R)-3-amino-5-methylpiperidin-1-yl]-2,3-dihydrofuro[2,3-b]pyridin-5-yl}-2-(2,6-difluorophenyl)-1,3-thiazole-4-carboxamide]	≤ 100 nM	≤ 100 nM	≤ 100 nM
C[C@@H]1C[C@H](N)CN(c2c(NC(=O)c3nc(-c4c(F)cccc4F)c(F)cc3N)cnc3c2CCO3)C1 [Example 38, 3-Amino-N-{4-[(3S,5R)-3-amino-5-methylpiperidin-1-yl]-2,3-dihydrofuro[2,3-b]pyridin-5-yl}-6-(2,6-difluorophenyl)-5-fluoropyridine-2-carboxamide]	≤ 100 nM	≤ 100 nM	≤ 100 nM
C[C@@H]1C[C@H](N)CN(c2c(NC(=O)c3ccc(F)c(-c4c(F)cccc4F)n3)cnc3c2CCO3)C1 [Example 39, N-{4-[(3S,5R)-3-Amino-5-methylpiperidin-1-yl]-2,3-dihydrofuro[2,3-b]pyridin-5-yl}-6-(2,6-difluorophenyl)-5-fluoropyridine-2-carboxamide]	≤ 100 nM	≤ 100 nM	≤ 100 nM
C[C@H]1CN(c2c(NC(=O)c3nc(-c4c(F)cccc4F)sc3N)cnc3c2CCO3)C[C@@H](N)[C@@H]1O [Example 40, 5-Amino-N-{4-[(3R,4R,5S)-3-amino-4-hydroxy-5-methylpiperidin-1-yl]-2,3-dihydrofuro[2,3-b]pyridin-5-yl}-2-(2,6-difluorophenyl)-1,3-thiazole-4-carboxamide]	≤ 100 nM	≤ 100 nM	≤ 100 nM
C[C@H]1CN(c2c(NC(=O)c3ccc(F)c(-c4c(F)cccc4F)n3)cnc3c2CCO3)C[C@@H](N)[C@@H]1O [Example 41, N-{4-[(3R,4R,5S)-3-Amino-4-hydroxy-5-methylpiperidin-1-yl]-2,3-dihydrofuro[2,3-b]pyridin-5-yl}-6-(2,6-difluorophenyl)-5-fluoropyridine-2-carboxamide]	≤ 100 nM	≤ 100 nM	≤ 100 nM
Nc1sc(-c2c(F)cccc2F)nc1C(=O)Nc1cnc2c(c1N1C[C@@H](N)C[C@@H](C(F)(F)F)C1)CCO2 [Example 42, 5-Amino-N-{4-[(3S,5R)-3-amino-5-(trifluoromethyl)piperidin-1-yl]-2,3-dihydrofuro[2,3-b]pyridin-5-yl}-2-(2,6-difluorophenyl)-1,3-thiazole-4-carboxamide]	≤ 100 nM	≤ 100 nM	≤ 100 nM
N[C@H]1C[C@@H](C(F)(F)F)CN(c2c(NC(=O)c3ccc(F)c(-c4c(F)cccc4F)n3)cnc3c2CCO3)C1 [Example 43, N-{4-[(3S,5R)-3-amino-5-(trifluoromethyl)piperidin-1-yl]-2,3-dihydrofuro[2,3-b]pyridin-5-yl}-6-(2,6-difluorophenyl)-5-fluoropyridine-2-carboxamide]	≤ 100 nM	≤ 100 nM	≤ 100 nM
N[C@H]1CCCN(c2c(NC(=O)c3ccc(F)c(-c4c(F)cccc4F)n3)cnc3c2CCC3=O)C1 [Example 50, N-{4-[(3S)-3-Aminopiperidin-1-yl]-7-oxo-6,7-dihydro-5H-cyclopenta[b]pyridin-3-yl}-6-(2,6-difluorophenyl)-5-fluoropyridine-2-carboxamide]	≤ 100 nM	100 to 1000 nM	≤ 100 nM
C[C@H]1CN(c2c(NC(=O)c3ccc(F)c(-c4c(F)cccc4F)n3)cnc3c2CCC3)C[C@@H](N)[C@@H]1O [Example 52, N-{4-[(3R,4R,5S)-3-Amino-4-hydroxy-5-methylpiperidin-1-yl]-6,7-dihydro-5H-cyclopenta[b]pyridin-3-yl}-6-(2,6-difluorophenyl)-5-fluoropyridine-2-carboxamide]	≤ 100 nM	≤ 100 nM	≤ 100 nM
CC1(N)CCCN(c2c(NC(=O)c3nc(-c4c(F)cccc4F)sc3N)cnc3c2CCC3)C1 (stereo not drawn) [Example 57, 5-Amino-N-[4-(3-amino-3-methylpiperidin-1-yl)-6,7-dihydro-5H-cyclopenta[b]pyridin-3-yl]-2-(2,6-difluorophenyl)-1,3-thiazole-4-carboxamide]	≤ 100 nM	100 to 1000 nM	≤ 100 nM
C[C@H]1CN(c2c(NC(=O)c3ccc(F)c(-c4c(F)cc(C(C)(C)O)cc4F)n3)cnc3c2CCO3)C[C@@H](N)[C@@H]1O [Example 65, N-{4-[(3R,4R,5S)-3-Amino-4-hydroxy-5-methylpiperidin-1-yl]-2,3-dihydrofuro[2,3-b]pyridin-5-yl}-6-[2,6-difluoro-4-(1-hydroxy-1-methylethyl)phenyl]-5-fluoropyridine-2-carboxamide]	≤ 100 nM	≤ 100 nM	≤ 100 nM
C[C@H]1CN(c2c(NC(=O)c3ccc(F)c(-c4c(F)cc(OC5CCCOC5)cc4F)n3)cnc3c2CCO3)C[C@@H](N)[C@@H]1O (stereo partly drawn) [Example 69, N-{4-[(3R,4R,5S)-3-amino-4-hydroxy-5-methylpiperidin-1-yl]-2,3-dihydrofuro[2,3-b]pyridin-5-yl}-6-[2,6-difluoro-4-(tetrahydro-2H-pyran-3-yloxy)phenyl]-5-fluoropyridine-2-carboxamide]	≤ 100 nM	≤ 100 nM	≤ 100 nM
C[C@H]1CN(c2c(NC(=O)c3nc(-c4c(F)cccc4F)c(F)cc3N)cnc3c2CCO3)C[C@@H](N)[C@@H]1O [Example 71, 3-Amino-N-{4-[(3R,4R,5S)-3-amino-4-hydroxy-5-methylpiperidin-1-yl]-2,3-dihydrofuro[2,3-b]pyridin-5-yl}-6-(2,6-difluorophenyl)-5-fluoropyridine-2-carboxamide]	≤ 100 nM	≤ 100 nM	≤ 100 nM
